Measured values as given in patent US20190223479A1, “SUGAR-DIPEPTIDE CONJUGATES AS FLAVOR MOLECULES” (NESTEC S.A., priority 2016, published 2019).
Entries after “also recorded” stand apart in the source; their conditions may differ.

How the values were obtained:
[1] = Sensory evaluation by 12 panelists of chicken soup spiked with the compounds; details: versus un-spiked reference soup; for Flavor property in chicken soup (2 g/l): compound added at 2 g/l
Description: Sample preparation: Chicken soups were prepared by dissolving 6 g chicken base powder (detailed recipe shown in Table 1), 1 g monosodium glutamate and 1 g of sodium chloride in 500 mL hot water. The compounds were separately added at 2 g/l and 0.25 g/l.
Sensory protocol: The sensory evaluation was carried out by 12 panelists, previously screened for their sensory abilities. The panelists assessed a maximum of 6 samples per session. They had Vittel water and crackers as mouth cleansers. In all the cases, the panelists were instructed to evaluate the samples on the following attributes: overall flavor persistency, umami, meaty, grilled/popcorn, boiled chicken, sweet, bitter, salty. The samples were coded with random 3-digit numbers according to a balanced presentation design, heated at approximately 65° C. and then presented in 40 ml brown plastic containers and under red light to minimize appearance bias (the serving was approximately 25 ml per sample).

[2] = Sensory comparison by 6 panelists (nose-clips) of soup with sugar conjugate vs equimolar glucose and lysine; details: 2 g/L (6.49 mmol/L) in soup base versus same molar concentrations of glucose and lysine
Description: A first soup was prepared by adding 2 g/L (6.49 mmol/L) 1-deoxy-D-fructosyl-N-Lysine (GluAmadori-Lys2) in the soup base as described above. A second soup was prepared by adding same corresponding molar concentrations of glucose and lysine. The solutions were then evaluated by 6 panelists following the same procedure than described above with using nose-clips.

[3] = Tomato soup seasoning compositions with added compound; details: 0.5 g/L or 2.5 g/L, versus reference soups without the compounds
Description: Tomato soups can be prepared by dissolving 6 g tomato base powder as can be obtained in the commerce in 500 mL hot water. GluAmadori-Lys1 or GluAmadori-Lys2 can then be added at a concentration of 0.5 g/L or 2.5 g/L to the soups in order to improve their taste and flavor profile. […] For example, a similar tomato soup can now be prepared which has the same saltiness as the reference tomato soup but comprising less sodium chloride.

[4] = described by T. Sonntag et al.; cited from earlier work

Molecule	Flavor property in chicken soup (2 g/l) [1]	other results
1-deoxy-D-fructosyl-N-Lysine [GluAmadori-Lys2]	enhanced saltiness, umaminess and overall flavor persistency	Sensory differences [2]: more salty and umami; Taste and flavor profile of tomato soup [3]: more pronounced umami taste as well as being perceived as more salty
NCCCC[C@H](N)C(=O)O [L-lysine]		Taste quality [4]: bitter tasting compound
NCCCC[C@H](NCC1(O)OCC(O)C1O)C(=O)O (stereo partly drawn) [RibAmadori-Lys1, ((2,3,4-trihydroxytetrahydrofuran-2-yl)methyl)lysine]	baked and roasted flavors were significantly increased; also recorded: baked, roasted flavor	
N[C@@H](CCCCNCC1(O)OCC(O)C1O)C(=O)O (stereo partly drawn) [RibAmadori-Lys2, N6-((2,3,4-trihydroxytetrahydrofuran-2-yl)methyl)lysine]	enhanced roasted flavor	
NCCCC[C@H](NCC1(O)OCC(O)C1O)C(=O)O (stereo partly drawn) [XylAmadori-Lys1, ((2,3,4-trihydroxytetrahydrofuran-2-yl)methyl)lysine]	baked and roasted flavors were significantly increased; also recorded: baked, roasted flavor	Flavor property in chicken soup (0.25 g/l) ([1]; compound added at 0.25 g/l): baked and roasted flavors were significantly increased
N[C@@H](CCCCNCC1(O)OCC(O)C1O)C(=O)O (stereo partly drawn) [XylAmadori-Lys2, N6-((2,3,4-trihydroxytetrahydrofuran-2-yl)methyl)lysine]	enhanced meat flavor	
